Series [1] can be described thus: Stability of compound CC0922. It is filed as physicochemical.
Series [2] deals with T790M mutant cell line H1975. The note with it: background statement; cited from earlier work.
A further series deals with NIH3T3 cells. In words: Toxicity test on NIH3T3 cells by MTT assay. It is filed as cell-based. Particulars: 72 hours.
The test system of another series is A431 cells. In words: Cell growth inhibition by MTT assay, A431 cells. Format: cell-based. Particulars: 72 hours.
Series [3] addresses T790M/L858R double mutant EGFR kinase (Homo sapiens (Human), UniProt P00533, L858R/T790M). In words: z'-lyte assay of inhibitory activity on T790M/L858R double mutant EGFR kinase. It is filed as biochemical. Particulars: for Selective inhibitory activity against enzymes [IC50 (EGFR WT)/IC50 (T790M/L858R)]: ratio of enzyme IC50 values; for IC50: z'-lyte assay, 25 μM ATP.
Another series concerns H1975 cells. In words: Cell growth inhibition by MTT assay, H1975 cells.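 On all read-outs here: MTT read-out in 96-well plates after 72 h compound exposure of H1975 and A431 cells, with selectivity given as the A431 IC50 divided by the H1975 IC50.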 It is filed as cell-based. The note with it: for IC50: MTT assay, 72 hours; for Selective inhibitory activity against cell growth [IC50 (A431 cell)/IC50 (H1975 cell)]: ratio of MTT IC50 values. A general note: Formazan colour is commonly taken as a measure of viable cells.
Series [4] addresses EGFR phosphorylation in H1975 (EGFR T790M mutant) cells (Homo sapiens (Human), UniProt P00533, L858R/T790M). In words: Inhibition of EGFR phosphorylation in H1975 cells (ELISA).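 On all read-outs here: Phospho-EGFR in cell lysates measured by capture-antibody ELISA with TMB substrate after compound exposure, cells given DMSO alone (0.5% final) serving as control.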 Particulars: for IC50: ELISA of EGFR phosphorylation, 1 h compound treatment, read-out: H1975 cell (IC50/μM); for Selective inhibitory activity against targets at the cell level [IC50 (A431 cell)/IC50 (H1975 cell)]: ratio of ELISA IC50 values. It is filed as cell-based.
Experimental: (§1) In the following methods, the reagents used, the preparation methods of solutions, the cell treatment and the preparation steps of the lysis solution, as well as the ELISA assay steps, were carried out according to the instructions of R&D DYC3570, R&D DYC1095E and R&D DYC1095BE.
(§2) Cell lysis solution: Cell lysis buffer+10 μg/mL Aprotinin (Sigma)+10 μg/mL Leupeptin (Sigma), prepared on site.
(§3) Wash buffer: PBS buffer containing 0.05% (v/v) Tween-20.
(§4) Blocking solution: PBS buffer containing 1% (w/v) BSA.
(1) H1975 cells (purchased from the Cell Bank of the Type Culture Collection Committee, Chinese Academy of Sciences) were seeded into 96-well plates at a density of 1×10^4/well, each cell containing 90 μl of RPMI1640 medium with 10% (V/V) FBS, and cultured overnight at 37° C. in 5% (v/v) CO2.
(2) The compounds to be tested were diluted in accordance with the drug dilution method in the MTT assay. 10 μL of the diluted compound or diluted DMSO was added to the corresponding wells of the cell culture plate, and the final concentration of DMSO was 0.5% (V/V). The plate was cultured at 37° C. in 5% (v/v) CO2 for 1 h. The cell culture system treated with DMSO alone was used as cell control.
(3) The medium was removed and then 100 μL of cell lysis solution was added. The plate was sealed and placed in a refrigerator at −80° C. overnight. The cell lysis buffer was used as blank control.
The assay was conducted according to the instructions given in R&D DYC1095E or R&D DYC1095BE.
(1) R&D capture antibody ((DYC1095BE or DYC1095E)) was diluted with PBS in the proportion of 1:180.
(§5) (2) The plate was washed 3 times with 360 μL of the wash buffer.
(3) 300 μL of the blocking solution was added and the plate was incubated at 25° C. with shaking for 2 hours.
(4) The plate was washed 3 times with 360 μL of the wash buffer.
(§6) (5) 40 μL of cell lysis buffer and 60 μL of cell lysis solution were added and the plate was incubated at 25° C. with shaking for 2 hours.
(§7) (6) The plate was washed 3 times with 360 μL of the wash buffer.
(§8) (7) The detection antibody was diluted with the detection antibody diluent in the proportion specified in the instructions of the kit. 100 μL of the diluted antibody was added to each well and the plate was incubated at 25° C. with shaking in dark for 1 h.
(8) The plate was washed 3 times with 360 μL of wash buffer.
(9) A reagent and B reagent in the TMB substrate (R&D DY999) were mixed in 1:1. 100 μL of the mixture was added to each well and incubated in dark at 25° C. with shaking for 20 min.
(§9) (10) 50 μL of 2N H2SO4 was added to each well.
(11) The plate was read with a microplate reader (Thermo Multiskan K3). OD 450 values and OD570 values of the cell control, blank control, and drug treatment wells were measured. ODcell, ODblank and ODdrug treatment were obtained by subtracting the corresponding OD570 value from the OD 450 value of the same well.
2.3 Data Analysis Inhibition rate (%)=100%×(ODcell−ODdrug treatment)/(ODcell−ODblank)

Series [5] deals with EGFR phosphorylation in A431 (EGFR wild-type) cells (Homo sapiens (Human), UniProt P00533). In words: Inhibition of EGFR phosphorylation in A431 cells (ELISA). Format: cell-based. Particulars: 1 h compound treatment, EGF stimulation, read-out: A431 cell (IC50/μM).
Experimental: as §1
I. Reagents and Solutions
as §2, §3, §4
3.1 A431 Cell Treatment and Testing Procedures
(1) A431 cells (purchased from the Cell Bank of the Type Culture Collection Committee, Chinese Academy of Sciences) were seeded in 96-well plates at a density of 1×10^4/well in 90 μl of DMEM medium containing 10% FBS and cultured at 37° C. in 5% CO2 overnight.
(2) The A431 cell culture medium was replaced with 90 μl of serum-free DMEM medium and the plate was cultured overnight.
(3) The compound to be tested was diluted according to the drug dilution method in MTT assay. 10 μL of the diluted compound or diluted DMSO was added to the corresponding wells of the cell culture plate, and the final concentration of DMSO was 0.5%. The plate was cultured at 37° C. in 5% CO2 for 1 hour. […] The cells without EGF and drug treatment were used as cell control, and the cells treated with EGF without drugs were used as EGF control.
(4) The medium was removed and then 100 μL of the cell lysis solution was added. The plate was sealed and placed in a refrigerator at −80° C. overnight.
The assay was conducted according to the instructions given in R&D DYC3570E.
(1) R&D capture antibody (DYC3570E) was diluted with PBS in the proportion of 1:180.
as §5
(3) 200 μL of the blocking solution was added and the plate was incubated at 25° C. with shaking for 2 hours.
(4) The plate was washed 3 times with 360 μL of wash buffer.
as §6, §7, §8
(8) The plate was washed 3 times with 360 μL of the wash buffer.
(9) A reagent and B reagent in TMB substrate (R&D DY999) were mixed in 1:1. 100 μL of the mixture was added to each well and incubated in dark at 25° C. with shaking for 20 min.
as §9
(11) The plate was read with a microplate reader (Thermo Multiskan K3). OD 450 values and OD570 values of the cell control, blank control, and drug treatment wells were measured. ODEGF, ODdrug and ODcell were obtained by subtracting the corresponding OD570 value from the OD 450 value of the same well.
3.3 Data Analysis Inhibition rate (%)=100%×(ODEGF−ODdrug)/(ODEGF−ODcell)
A further series deals with wild-type EGFR kinase (Homo sapiens (Human), UniProt P00533). Particulars: read-out: EGFR WT (IC50/μM); z'-lyte assay, 10 μM ATP.

The source of these data is patent publication US10085983B2, “Azabicyclo derivatives, process for preparation thereof and medical use thereof” (Shanghai Haiyan Pharmaceutical Technology Co., Ltd., priority 2014, dated 2018).

The structures appear in SMILES notation. Where only a bound is given, the exact number is not on record here.

Sequence of EGFR phosphorylation in A431 (EGFR wild-type) cells (P00533 25-1210): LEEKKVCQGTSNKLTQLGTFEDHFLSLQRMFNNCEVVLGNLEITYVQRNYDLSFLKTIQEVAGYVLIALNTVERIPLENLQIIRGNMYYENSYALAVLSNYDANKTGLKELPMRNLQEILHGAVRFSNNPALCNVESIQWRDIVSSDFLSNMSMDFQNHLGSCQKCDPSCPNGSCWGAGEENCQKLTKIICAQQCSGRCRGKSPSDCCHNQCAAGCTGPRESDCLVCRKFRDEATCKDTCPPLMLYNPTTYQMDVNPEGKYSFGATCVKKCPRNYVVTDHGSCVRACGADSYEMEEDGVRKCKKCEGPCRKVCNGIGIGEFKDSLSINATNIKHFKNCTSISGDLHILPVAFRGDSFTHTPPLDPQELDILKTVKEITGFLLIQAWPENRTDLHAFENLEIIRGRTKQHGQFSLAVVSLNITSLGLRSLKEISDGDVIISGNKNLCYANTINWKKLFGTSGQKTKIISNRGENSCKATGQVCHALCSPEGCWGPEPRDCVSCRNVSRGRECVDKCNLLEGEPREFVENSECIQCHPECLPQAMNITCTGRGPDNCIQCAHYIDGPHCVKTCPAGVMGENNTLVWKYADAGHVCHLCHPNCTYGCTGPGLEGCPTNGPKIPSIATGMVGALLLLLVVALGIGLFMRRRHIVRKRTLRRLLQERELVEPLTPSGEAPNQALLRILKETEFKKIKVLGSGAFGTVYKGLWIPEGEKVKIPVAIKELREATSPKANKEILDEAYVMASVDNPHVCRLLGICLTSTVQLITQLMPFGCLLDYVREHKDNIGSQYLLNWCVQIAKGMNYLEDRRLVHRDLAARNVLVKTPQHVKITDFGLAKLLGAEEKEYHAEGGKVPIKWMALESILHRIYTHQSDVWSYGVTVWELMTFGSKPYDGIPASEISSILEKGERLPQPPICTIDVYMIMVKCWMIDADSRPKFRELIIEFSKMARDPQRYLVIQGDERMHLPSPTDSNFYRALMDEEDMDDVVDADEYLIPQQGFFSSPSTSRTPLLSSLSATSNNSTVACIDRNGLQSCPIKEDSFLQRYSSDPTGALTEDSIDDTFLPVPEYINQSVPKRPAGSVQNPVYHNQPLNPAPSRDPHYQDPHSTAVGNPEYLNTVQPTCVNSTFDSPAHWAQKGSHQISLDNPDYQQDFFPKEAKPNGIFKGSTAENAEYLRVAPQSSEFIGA
Sequence of wild-type EGFR kinase (P00533 25-1210): as above
Sequence of T790M/L858R double mutant EGFR kinase (P00533 25-1210 T790M/L858R): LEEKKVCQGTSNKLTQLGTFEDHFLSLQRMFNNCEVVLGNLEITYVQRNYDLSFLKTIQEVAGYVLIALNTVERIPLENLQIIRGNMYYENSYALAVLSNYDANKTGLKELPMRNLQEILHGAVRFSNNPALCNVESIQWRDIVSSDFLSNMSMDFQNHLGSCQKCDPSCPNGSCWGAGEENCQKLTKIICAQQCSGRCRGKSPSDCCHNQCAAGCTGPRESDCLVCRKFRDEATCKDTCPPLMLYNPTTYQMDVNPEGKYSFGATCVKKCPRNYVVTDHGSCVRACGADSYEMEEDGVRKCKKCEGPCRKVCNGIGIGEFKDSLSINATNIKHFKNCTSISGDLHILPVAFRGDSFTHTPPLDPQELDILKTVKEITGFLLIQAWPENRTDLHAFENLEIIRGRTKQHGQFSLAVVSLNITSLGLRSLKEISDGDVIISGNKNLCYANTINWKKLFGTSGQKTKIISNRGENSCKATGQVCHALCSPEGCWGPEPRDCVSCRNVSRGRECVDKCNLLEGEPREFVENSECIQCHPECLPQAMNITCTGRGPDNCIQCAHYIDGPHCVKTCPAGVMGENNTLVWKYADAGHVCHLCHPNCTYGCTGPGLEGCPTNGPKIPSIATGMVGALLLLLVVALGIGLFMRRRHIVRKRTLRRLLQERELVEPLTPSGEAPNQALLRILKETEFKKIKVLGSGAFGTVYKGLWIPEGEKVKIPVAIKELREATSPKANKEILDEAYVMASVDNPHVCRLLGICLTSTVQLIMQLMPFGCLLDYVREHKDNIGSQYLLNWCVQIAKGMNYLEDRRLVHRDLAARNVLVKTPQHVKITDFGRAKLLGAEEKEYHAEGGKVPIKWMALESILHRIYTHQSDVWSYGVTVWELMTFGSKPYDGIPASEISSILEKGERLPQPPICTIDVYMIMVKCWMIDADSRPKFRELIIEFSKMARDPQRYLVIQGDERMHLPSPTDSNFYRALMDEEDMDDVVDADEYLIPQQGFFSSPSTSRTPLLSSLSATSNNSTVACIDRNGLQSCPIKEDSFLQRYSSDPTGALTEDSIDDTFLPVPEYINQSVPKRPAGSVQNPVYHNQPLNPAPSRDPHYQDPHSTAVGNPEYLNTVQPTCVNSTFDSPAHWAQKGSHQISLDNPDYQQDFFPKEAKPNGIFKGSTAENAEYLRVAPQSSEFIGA
Sequence of EGFR phosphorylation in H1975 (EGFR T790M mutant) cells (P00533 25-1210 T790M/L858R): as above
Experimental for NIH3T3 cells: The steps of the MTT assay were carried out using methods well known to those skilled in the art, and all the reagents used in the methods are commercially available.
After the first wash, another 1.5 mL of trypsin/EDTA was added to digest the adherent cells until the cells detached. Then 3.5 mL of the culture medium was added to terminate the digestion. The digested cell suspension was transferred to a 15 mL centrifuge tube and centrifuged at 1300 rpm for 3 minutes. The supernatant was discarded and the cells were resuspended in fresh medium. The cells were then counted and diluted to the following concentrations: 27,800 cells per milliliter of H1975 cells, 33,300 cells per milliliter of A431 cells and NIH3T3 cells (purchased from the Cell Bank of the Type Culture Collection Committee, Chinese Academy of Sciences).
After the drug was added, the cells were incubated in an incubator for 72 hours. 10 μL of 5 mg/ml MTT (Sigma, M5655) solution was added to each well. The 96-well plate was then incubated in a 37° C. and 5% CO2 incubator for 4 h.
The plate was then centrifuged at 2000 rpm for 5 min. After the supernatant was removed, 150 μl of DMSO was added to each well and the plate was shaken in a shaker until all crystal violet was dissolved.
Experimental for wild-type EGFR kinase: All reagents used in the following z′-lyte assay were purchased from Invitrogen.
The working concentrations of each component in 10 μL wild-type EGFR kinase reaction system were: 10 μM ATP, 0.8 ng/μL wild-type EGFR kinase, 2 μM Tyr04 substrate (Invitrogen, PV3193). The concentration of DMSO after addition of the compound to be tested was 2 vol %.
10 mM drug stock solution was dissolved at room temperature and gradiently diluted to a final concentration of 4-0.002 μM with 8 vol % DMSO solution. […] Then 2.5 μl of ATP was added to initiate the reaction. Wherein, ATP was replaced by the reaction buffer in well C1, no drug was added to well C2, and the phosphorylated substrate was added to well C3 according to the instructions. The mixture was allowed to react at 25° C. in a shaker in dark for 60 min. 5 μL of Development Reagent B (Invitrogen, diluted with TR-FRET dilution buffer) was added and allowed to react at room temperature in the shaker for 60 minutes.
The inhibition rate was calculated according to the following method (refer to the instructions of Invitrogen, PV3193):
1. ER=Coumarin Emission (450 nm)/Fluorescein Emission (520 nm)
The half-inhibitory concentration IC50 was obtained through fitting calculation by using XLFIT 5.0 software (IDBS, UK).

In the case of `C=CC(=O)Nc1cccc(-c2ccc3cnc(Nc4ccc(N(C)CCN(C)C)cc4OC)nn23)c1` [CC0922], in series [1], the stability result was “very unstable”.

`C#Cc1cccc(Nc2ncnc3cc(OCCOC)c(OCCOC)cc23)c1` [erlotinib]: in [2], the “activity in the T790M mutant cell line H1975” value was “greater than 3 uM”.

As for `COc1cc2ncnc(Nc3ccc(F)c(Cl)c3)c2cc1OCCCN1CCOCC1` [gefitinib], the “activity in the T790M mutant cell line H1975” value in series [2] is “greater than 3 uM”.

On to `C=CC(=O)Nc1cc(Nc2ncc3ccc(C)n3n2)c(OC)cc1N(C)CCN(C)C` [Compound J-9, N-(2-((2-(dimethylamino)ethyl)(methyl)amino)-4-methoxy-5-(7-methylpyrrolo[1,2-f][1,2,4]triazin-2-ylamino)phenyl)acrylamide], for which the IC50 in the series on NIH3T3 cells was > 10 µM; in the series with A431 cells, 1.65 µM; in [3], 0.016 µM; with H1975 cells it was 0.125 µM; in series [4], 0.186 µM; in [5], 0.92 µM. Further, the IC50 on wild-type EGFR kinase was 0.105 µM. In addition, the “Selective inhibitory activity against enzymes [IC50 (EGFR WT)/IC50 (T790M/L858R)]” value in [3] was 6.6. Besides, the “Selective inhibitory activity against cell growth [IC50 (A431 cell)/IC50 (H1975 cell)]” value with H1975 cells is 13.2. Besides, in series [4], the “Selective inhibitory activity against targets at the cell level [IC50 (A431 cell)/IC50 (H1975 cell)]” value came out at 5.

With `C=CC(=O)Nc1cc(Nc2ncc3ccc(-c4ccn(C)c4)n3n2)c(OC)cc1N(C)CCN(C)C` [Compound J-12, N-(2-((2-(dimethylamino)ethyl)(methyl)amino)-4-methoxy-5-(7-(1-methyl-1H-pyrrol-3-yl)pyrrolo[1,2-f][1,2,4]triazin-2-ylamino)phenyl)acrylamide], the IC50 was 4.73 µM with NIH3T3 cells; 0.332 µM in the series with A431 cells; 0.0019 µM in series [3]; 0.009 µM in the series on H1975 cells; 0.015 µM in series [4]; 0.023 µM in [5]. Besides, on wild-type EGFR kinase, the IC50 amounted to 0.008 µM. In [3], the “Selective inhibitory activity against enzymes [IC50 (EGFR WT)/IC50 (T790M/L858R)]” value stood at 4.2. Besides, the “Selective inhibitory activity against cell growth [IC50 (A431 cell)/IC50 (H1975 cell)]” value with H1975 cells is 36.9. In addition, the “Selective inhibitory activity against targets at the cell level [IC50 (A431 cell)/IC50 (H1975 cell)]” value in series [4] is 1.5.

Regarding `C=CC(=O)Nc1cc(Nc2ncc3ccc(-c4cnn(C)c4)n3n2)c(OC)cc1N(C)CCN(C)C` [Compound J-1, N-(2-((2-(dimethylamino)ethyl)(methyl)amino)-4-methoxy-5-(7-(1-methyl-1H-pyrazol-4-yl)pyrrolo[1,2-f][1,2,4]triazin-2-ylamino)phenyl)acrylamide], the IC50 is 4.83 µM in the series on NIH3T3 cells; 0.327 µM in the series on A431 cells; 0.001 µM in series [3]; < 0.00457 µM in the series with H1975 cells; 0.012 µM in series [4]; 0.112 µM in [5]. The IC50 at wild-type EGFR kinase was determined as 0.004 µM. Moreover, in [3], the “Selective inhibitory activity against enzymes [IC50 (EGFR WT)/IC50 (T790M/L858R)]” value came out at 4. Moreover, the “Selective inhibitory activity against cell growth [IC50 (A431 cell)/IC50 (H1975 cell)]” value in the series on H1975 cells is 71.6. Also, in series [4], the “Selective inhibitory activity against targets at the cell level [IC50 (A431 cell)/IC50 (H1975 cell)]” value is reported as 9.3.

`C=CC(=O)Nc1cc(Nc2ncc3ccc(-c4cccnc4)n3n2)c(OC)cc1N(C)CCN(C)C` [Compound J-6, N-(2-((2-(dimethylamino)ethyl)(methyl)amino)-4-methoxy-5-(7-(pyridin-3-yl)pyrrolo[1,2-f][1,2,4]triazin-2-ylamino)phenyl)acrylamide]: the IC50 in the series with NIH3T3 cells came to 8.21 µM; in the series on A431 cells, 0.427 µM; in series [3], 0.0024 µM; in the series with H1975 cells it was 0.028 µM; in series [4], 0.027 µM; in [5] it was 0.309 µM. Moreover, the IC50 on wild-type EGFR kinase was determined as 0.013 µM. Moreover, in series [3], the “Selective inhibitory activity against enzymes [IC50 (EGFR WT)/IC50 (T790M/L858R)]” value is given as 5.42. For the same molecule, the “Selective inhibitory activity against cell growth [IC50 (A431 cell)/IC50 (H1975 cell)]” value with H1975 cells was 15.3. Moreover, the “Selective inhibitory activity against targets at the cell level [IC50 (A431 cell)/IC50 (H1975 cell)]” value in series [4] is listed as 11.4.

As to `C=CC(=O)Nc1cc(Nc2ncc3ccc(-c4cnc5ccccc5c4)n3n2)c(OC)cc1N1CCC(N(C)C)CC1` [Compound J-13, N-(2-(4-(dimethylamino)piperidin-1-yl)-4-methoxy-5-(7-(quinolin-3-yl)pyrrolo[1,2-f][1,2,4]triazin-2-ylamino)phenyl)acrylamide], the IC50 with NIH3T3 cells was 2.97 µM; in the series on A431 cells, 0.369 µM; in series [3], 0.005 µM; in the series with H1975 cells it was 0.013 µM; in [4], 0.043 µM; in series [5], 0.301 µM. In addition, the IC50 on wild-type EGFR kinase stood at 0.021 µM. Moreover, in series [3], the “Selective inhibitory activity against enzymes [IC50 (EGFR WT)/IC50 (T790M/L858R)]” value is on record as 4.2. For the same molecule, in the series on H1975 cells, the “Selective inhibitory activity against cell growth [IC50 (A431 cell)/IC50 (H1975 cell)]” value was determined as 28.4. In series [4], the “Selective inhibitory activity against targets at the cell level [IC50 (A431 cell)/IC50 (H1975 cell)]” value amounted to 7.

Consider `C=CC(=O)Nc1cc(Nc2ncc3ccc(C4=CCCCC4)n3n2)c(OC)cc1N(C)CCN(C)C` [Compound J-5, N-(5(7-cyclohexenyl-pyrrolo[1,2-f][1,2,4]triazin-2-ylamino)-2-((2-(dimethylamino)ethyl)(methyl)amino)-4-methoxyphenyl)acrylamide], for which the IC50 in the series with NIH3T3 cells came to 2.82 µM; in the series with A431 cells, 0.354 µM; in series [3] it was 0.003 µM; in the series on H1975 cells it was 0.023 µM; in [4], 0.106 µM; in series [5], 0.208 µM. In addition, the IC50 at wild-type EGFR kinase was 0.009 µM. Moreover, the “Selective inhibitory activity against enzymes [IC50 (EGFR WT)/IC50 (T790M/L858R)]” value in series [3] is on record as 3. The “Selective inhibitory activity against cell growth [IC50 (A431 cell)/IC50 (H1975 cell)]” value in the series on H1975 cells came to 15.4. Further, in [4], the “Selective inhibitory activity against targets at the cell level [IC50 (A431 cell)/IC50 (H1975 cell)]” value is listed as 2.

Turning to `C=CC(=O)Nc1cc(Nc2ncc3ccc(-c4cnn(C)c4)n3n2)c(OC)cc1OCCN(C)C` [Compound J-3, N-(2-(2-(dimethylamino)ethoxyl)-4-methoxy-5-(7-(1-methyl-1H-pyrazol-4-yl)pyrrolo[1,2-f][1,2,4]triazin-2-ylamino)phenyl)acrylamide], the IC50 with NIH3T3 cells amounted to 3.91 µM; in the series on A431 cells, 0.168 µM; in [3], 0.001 µM; with H1975 cells, 0.008 µM; in series [4], 0.001 µM; in series [5], 0.093 µM. Also, the IC50 on wild-type EGFR kinase came out at 0.01 µM. For the same molecule, the “Selective inhibitory activity against enzymes [IC50 (EGFR WT)/IC50 (T790M/L858R)]” value in series [3] was 10. In addition, the “Selective inhibitory activity against cell growth [IC50 (A431 cell)/IC50 (H1975 cell)]” value in the series with H1975 cells was 21. For the same molecule, in series [4], the “Selective inhibitory activity against targets at the cell level [IC50 (A431 cell)/IC50 (H1975 cell)]” value came out at 93.

As to `C=CC(=O)Nc1cc(Nc2ncc3ccc(-c4cnn(C)c4)n3n2)c(OC)cc1N1CCC(N(C)C)CC1` [Compound J-2, N-(2-(4-(dimethylamino)piperidin-1-yl)-4-methoxy-5-(7-(1-methyl-1H-pyrazol-4-yl)pyrrolo[1,2-f][11,2,4]triazin-2-ylamino)phenyl)acrylamide], the IC50 in the series with NIH3T3 cells was found to be 5.46 µM; in the series on A431 cells, 0.403 µM; in [3], 0.002 µM; in the series on H1975 cells it was 0.011 µM; in series [4], 0.025 µM; in series [5], 0.303 µM. In addition, the IC50 at wild-type EGFR kinase is 0.023 µM. Further, the “Selective inhibitory activity against enzymes [IC50 (EGFR WT)/IC50 (T790M/L858R)]” value in series [3] is recorded as 11.5. The “Selective inhibitory activity against cell growth [IC50 (A431 cell)/IC50 (H1975 cell)]” value in the series on H1975 cells was 36.6. The “Selective inhibitory activity against targets at the cell level [IC50 (A431 cell)/IC50 (H1975 cell)]” value in series [4] was 12.1.

As to `C=CC(=O)Nc1cc(Nc2ncc3ccc(-c4ccccc4)n3n2)c(OC)cc1N(C)CCN(C)C` [Compound J-11, N-(2-((2-(dimethylamino)ethyl)(methyl)amino)-4-methoxy-5-(7-phenylpyrrolo[1,2-f][1,2,4]triazin-2-ylamino)phenyl)acrylamide], the IC50 in the series with NIH3T3 cells amounted to 5.57 µM; in the series with A431 cells, 0.621 µM; in series [3] it was 0.0024 µM; with H1975 cells it was 0.026 µM; in [4], 0.063 µM; in series [5], 0.237 µM. Further, the IC50 on wild-type EGFR kinase amounted to 0.01 µM. For the same molecule, in series [3], the “Selective inhibitory activity against enzymes [IC50 (EGFR WT)/IC50 (T790M/L858R)]” value amounted to 4.2. Further, the “Selective inhibitory activity against cell growth [IC50 (A431 cell)/IC50 (H1975 cell)]” value in the series with H1975 cells was found to be 23.9. Moreover, the “Selective inhibitory activity against targets at the cell level [IC50 (A431 cell)/IC50 (H1975 cell)]” value in series [4] is listed as 3.8.
